Key:
[1] = test system: fornix lesion rats; experiment: Inhibitory Avoidance (IA) task, rats with lesions of the fornix (amnesic rats); assay type: in vivo, rat; details: one hour before; for performance of treated fornix animals compared with normal, saline injected animals: Student-Newman-Keuls post hoc test
Text: Animal models for studying fornix-mediated memory consolidation have previously been described. See, for example, Taubenfield et al., Supra. The fornix-lesioned animals can be used for drug screening, e.g., to identify dosages of the subject reuptake inhibitors which enhance memory consolidation. The lesioned mammal can have a lesion of the fornix or a related brain structure that disrupts memory consolidation (e.g., perirhinal cortex, amygdala, medial septal nucleus, locus coeruleus, hippocampus, mammallary bodies). Lesions in the mammal can be produced by mechanical or chemical disruption. For example, the fornix lesion can be caused by surgical ablation, electrolytic, neurotoxic and other chemical ablation techniques, or reversible inactivation such as by injection of an anesthetic, e.g., tetrodotoxin or lidocaine, to temporarily arrest activity in the fornix.
In one embodiment, the animal can be a rat. Briefly, the animals are anesthetized, e.g., with intraperitoneal injections of a ketamine-xylazine mixture and positioned in a Kopf stereotaxic instrument. A sagittal incision is made in the scalp and a craniotomy is performed extending 2.0 mm posterior and 3.0 mm lateral from Bregma. An aspirative device, e.g., with a 20 gauge tip, is mounted to a stereotaxic frame (Kopf Instruments) and fimbria-fornix is aspirated by placing the suction tip at the correct sterotaxic location in the animals brain. Unilateral aspirative lesions are made by suction through the cingulate cortex, completely transecting the fimbria fornix unilaterally, and (optionally) removing the dorsal tip of the hippocampus as well as the overlying cingulate cortex to inflict a partial denervation on the hippocampus target. See also, Gage et al., (1983) Brain Res. 268:27 and Gage et al. (1986) Neuroscience 19:241.
(§1) The Inhibitory Avoidance (IA) task is a well-studied behavioral paradigm which can provide the researcher with a consistent and long-lasting measure of memory. The paradigm consists of one training trial and one retention trial. Test articles may be administered to the rats either before or after training. Improved memory, as a result of test compound administration, is evident as increased latency on the retention trial. The objective of the following experiments was to investigate the effects of methylphenidate on IA memory in the rat.
In the next experiment, we investigated whether the performance of amnesic rats could be improved by administration of methylphenidate. In this experiment, control rats and rats with lesions of the fornix received injections of either saline or methylphenidate (5 mg/kg), and one hour later, were tested on the IA task.
In the next experiment, we investigated whether the performance of amnesic rats could be improved by administration of amphetamine. […]

[2] = test system: IA memory in the rat; experiment: Inhibitory Avoidance (IA) task, normal rats; assay type: in vivo; details: for performance on the IA task, normal rats: one hour before, p<0.05 relative to all other groups; for long-term retention of the IA task: second retention test one week after the first, no additional training or drug
Procedure: An exemplary passive avoidance test utilizes an apparatus that consists of a lit chamber that can be separated from a dark chamber by a sliding door. At training, the animal is placed in the lit chamber for some period of time, and the door is opened. The animal moves to the dark chamber after a short delay—the latency—that is recorded. Upon entry into the dark chamber, the door is shut closed and a foot shock is delivered.
as §1, with “Improved memory, as a result of test compound administration, is evident as increased latency on the retention trial.” left out

[3] = test system: rats; experiment: Activity level tests (10 minute session); details: 0.5 mg/kg; 10 minute period one hour after injection; FIGS. 16-21

## C[C@H](N)Cc1ccccc1 [S-(+)amphetamine]
[1]; 200 standard units/kg, FIG. 8
  performance on the IA task, fornix lesion rats: appeared to improve the performance of the fornix lesion rats
[1]; 200 standard units/kg
  performance of treated fornix animals compared with normal, saline injected animals: not significantly different from normal, saline injected animals
[2]; 2 mg/kg (200 standard units) one hour prior to training, 24 hour retention interval, 0.46 mA shock, FIG. 9
  retention of the IA task: improved retention of the task
[2]; 25 standard units/kg, injected thirty minutes prior to training, FIG. 4
  retention of the IA task: no effect
[2]; 50 standard units/kg, injected thirty minutes prior to training, FIG. 4
  retention of the IA task: no effect
[2]; 100 standard units/kg, injected thirty minutes prior to training, FIG. 4
  retention of the IA task: no effect
[2]; 200 standard units, injected thirty minutes prior to training, FIG. 4
  retention of the IA task: improved retention of the task
[2]; 200 standard units/kg, FIG. 8
  performance on the IA task, normal rats: dramatically enhanced the performance of normal rats
[2]; 200 standard units/kg, unpaired t-test p<0.01, FIG. 5
  retention of the IA task (second, verifying experiment): significantly improved retention of the task
[2]; F(4,47)=3.688, p<0.01, FIG. 7
  long-term retention of the IA task: performed significantly better than rats that had received control injections of vehicle solution

## C[C@@H](N)Cc1ccccc1 [R-(−)amphetamine]
[3]
  activity levels (distance, movements, movement time, rears, stereotyped movements, resting time) versus saline control: no significant effects on the activity levels
[2]; 0.5 mg/kg one hour prior to training, 24 hour retention interval, 0.46 mA shock, unpaired t-test p<0.002, FIG. 15
  retention of the IA task (second, verifying experiment): significantly improved retention of the task
[2]; 0.5, 1.0, 2.0 or 4.0 mg/kg one hour prior to training, 24 hour retention interval, 0.46 mA shock, FIG. 14
  dose required for improved retention of the IA task, compared with S-(+)amphetamine: a much lower dose of R-(−)amphetamine is required for the same improved retention effect
[2]; 1.0, 2.0 or 4.0 mg/kg versus 0.5 mg/kg, one hour prior to training, 24 hour retention interval, FIG. 14
  retention of the IA task at doses above 0.5 mg/kg: did not further improve the retention results

## COC(=O)C(c1ccccc1)C1CCCCN1 (centres unmarked) [methylphenidate]
[1]; 5 mg/kg, FIG. 3
  performance on the IA task, fornix lesion rats: appeared to improve the performance of the fornix lesion rats
[1]; 5 mg/kg
  performance of treated fornix animals compared with normal, saline injected animals: not significantly different from normal, saline injected animals
[2]; 5 mg/kg, FIG. 3
  performance on the IA task, normal rats: dramatically enhanced the performance of normal rats
[2]; 50 standard units/kg, injected thirty minutes prior to training, FIG. 1
  retention of the IA task: improved retention
[2]; 50 standard units/kg, time of administration varied
  optimal pre-training drug administration time: most effective when administered to the rats one hour prior to training
[2]; 50 standard units/kg, unpaired t-test p<0.03, FIG. 2
  retention of the IA task (second, verifying experiment): significantly improved retention of the task
[2]; 100 standard units/kg, injected thirty minutes prior to training, FIG. 1
  retention of the IA task: no effect
[2]; 150 standard units/kg, injected thirty minutes prior to training, FIG. 1
  retention of the IA task: no effect
[2]
  long-term retention of the IA task: this improvement is long lasting
